IC50 data for 51 molecules are collected here from patent publication US20150246938A1, “NOVEL OLEFIN DERIVATIVE” (SHIONOGI & CO., LTD., priority 2011, published 2015).

As a reminder, the IC50 is the concentration at which inhibition is half-maximal.

Structures are written as SMILES. Where two headings read alike, the source gives them in different places.

In the assay the target is T1, recombinant human ACC2 (Homo sapiens, UniProt O00763).
T1 construct: a cDNA encoding human ACC2 (27-2458) was cloned from human kidney cDNA library (Clontech); His-tag (N); made in house; host or cells: Sf-9 insect cells (Bac-to-Bac baculovirus)
T1 sequence (O00763 27-2458): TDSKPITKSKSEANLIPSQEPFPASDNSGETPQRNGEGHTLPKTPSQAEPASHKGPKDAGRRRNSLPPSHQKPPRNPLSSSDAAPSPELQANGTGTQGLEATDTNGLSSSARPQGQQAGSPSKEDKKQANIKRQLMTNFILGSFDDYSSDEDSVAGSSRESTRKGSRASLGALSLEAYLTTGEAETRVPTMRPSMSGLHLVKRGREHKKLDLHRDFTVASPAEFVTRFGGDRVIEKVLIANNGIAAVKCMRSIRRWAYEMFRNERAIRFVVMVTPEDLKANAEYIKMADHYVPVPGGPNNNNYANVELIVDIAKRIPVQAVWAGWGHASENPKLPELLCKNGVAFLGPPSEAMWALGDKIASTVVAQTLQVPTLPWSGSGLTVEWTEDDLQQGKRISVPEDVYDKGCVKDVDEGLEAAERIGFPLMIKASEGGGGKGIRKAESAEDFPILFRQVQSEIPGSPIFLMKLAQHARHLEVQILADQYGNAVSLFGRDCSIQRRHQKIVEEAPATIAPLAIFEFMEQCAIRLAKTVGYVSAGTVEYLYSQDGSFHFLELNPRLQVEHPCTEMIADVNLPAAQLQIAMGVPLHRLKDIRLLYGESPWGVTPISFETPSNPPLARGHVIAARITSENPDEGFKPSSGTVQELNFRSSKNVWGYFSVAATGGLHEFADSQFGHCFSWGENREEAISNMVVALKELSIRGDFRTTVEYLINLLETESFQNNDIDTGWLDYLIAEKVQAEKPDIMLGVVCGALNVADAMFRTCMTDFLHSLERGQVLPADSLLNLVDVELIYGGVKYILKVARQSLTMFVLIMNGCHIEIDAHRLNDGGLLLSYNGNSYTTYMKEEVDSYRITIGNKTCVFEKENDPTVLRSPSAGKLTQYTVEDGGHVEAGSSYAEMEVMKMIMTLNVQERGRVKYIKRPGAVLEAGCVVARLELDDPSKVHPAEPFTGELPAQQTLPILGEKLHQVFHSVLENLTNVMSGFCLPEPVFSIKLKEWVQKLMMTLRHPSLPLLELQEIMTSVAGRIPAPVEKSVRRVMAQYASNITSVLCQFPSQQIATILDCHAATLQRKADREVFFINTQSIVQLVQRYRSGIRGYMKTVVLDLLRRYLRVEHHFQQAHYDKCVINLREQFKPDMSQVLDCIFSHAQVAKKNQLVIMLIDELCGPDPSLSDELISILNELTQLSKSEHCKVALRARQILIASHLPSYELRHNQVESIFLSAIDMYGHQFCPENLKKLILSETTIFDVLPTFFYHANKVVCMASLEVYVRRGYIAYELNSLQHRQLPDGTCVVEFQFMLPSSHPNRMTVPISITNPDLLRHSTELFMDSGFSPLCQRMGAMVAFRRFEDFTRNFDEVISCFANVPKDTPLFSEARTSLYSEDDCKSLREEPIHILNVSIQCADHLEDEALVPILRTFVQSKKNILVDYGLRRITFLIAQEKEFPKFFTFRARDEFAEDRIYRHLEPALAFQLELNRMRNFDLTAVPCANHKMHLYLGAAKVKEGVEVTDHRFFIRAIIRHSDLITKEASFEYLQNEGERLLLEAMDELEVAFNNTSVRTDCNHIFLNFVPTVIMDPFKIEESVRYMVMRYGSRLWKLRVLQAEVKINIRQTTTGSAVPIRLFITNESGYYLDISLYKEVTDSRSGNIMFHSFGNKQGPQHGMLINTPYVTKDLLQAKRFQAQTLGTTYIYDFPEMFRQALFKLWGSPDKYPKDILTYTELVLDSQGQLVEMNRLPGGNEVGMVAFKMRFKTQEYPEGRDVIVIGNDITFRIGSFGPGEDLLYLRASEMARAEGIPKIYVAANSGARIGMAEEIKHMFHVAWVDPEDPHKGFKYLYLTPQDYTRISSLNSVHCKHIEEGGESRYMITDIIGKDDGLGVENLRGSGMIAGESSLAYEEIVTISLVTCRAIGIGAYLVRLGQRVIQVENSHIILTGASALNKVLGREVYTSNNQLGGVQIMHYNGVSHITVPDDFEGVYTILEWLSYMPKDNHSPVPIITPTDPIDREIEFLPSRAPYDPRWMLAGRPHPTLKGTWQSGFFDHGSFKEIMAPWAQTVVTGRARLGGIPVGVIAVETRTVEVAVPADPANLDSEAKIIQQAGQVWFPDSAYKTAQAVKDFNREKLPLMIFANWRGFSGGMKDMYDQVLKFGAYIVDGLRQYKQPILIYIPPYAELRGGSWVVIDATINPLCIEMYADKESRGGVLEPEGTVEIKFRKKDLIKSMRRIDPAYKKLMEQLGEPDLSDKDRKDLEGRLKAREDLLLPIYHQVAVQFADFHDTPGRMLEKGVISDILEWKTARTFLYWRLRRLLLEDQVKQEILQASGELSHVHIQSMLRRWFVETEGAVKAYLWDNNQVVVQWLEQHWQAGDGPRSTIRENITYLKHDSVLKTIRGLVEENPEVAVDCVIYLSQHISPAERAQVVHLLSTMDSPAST
Briefly: Measurement of inhibitory activity on human ACC2 (MALDI-TOF MS, acetyl CoA to malonyl CoA conversion). It is filed as biochemical.

Setting [1] is: inhibition activity on human ACC2, Table 84, read-out: IC50.
[2] abbreviates: inhibition activity on human ACC2, Table 80, read-out: IC50.
Where [3] appears, read: inhibition activity on human ACC2, untitled table (Table 81), read-out: IC50.
Setting [4] is: inhibition activity on human ACC2, Table 82, read-out: IC50.
The mark [5] stands for this setting: inhibition activity on human ACC2, Table 79, read-out: IC50.

Experimental: To express human ACC2, Sf-9 cells were infected with recombinant baculovirus. After infected cells were disrupted, the filtrated lysate was subjected to Ni-affinity chromatography and anion-exchange chromatography. The fractions containing human ACC2 protein were pooled as recombinant human ACC2 solution.
Recombinant human ACC1 and recombinant human ACC2, which were prepared by the method mentioned above, were preincubated with assay buffer solution (50 mM HEPES-KOH (pH 7.4), 10 mM magnesium chloride, 6-10 mM potassium citrate, 4 mM reduced form of glutathione, 1.5 mg/ml bovine serum albumin) for one hour. Then, 0.2 μL of each this invention compound solution (in DMSO) were dispensed to 384-well microplate, 5 μL of the preincubated enzyme solution and 5 μL of substrate solution (50 mM HEPES-KOH (pH 7.4), 1 mM ATP, 0.8 mM acetyl CoA and 25-50 mM potassium bicarbonate) were added to microplate. After centrifugation and shaking, the reaction mixtures were incubated in a humidified box at room temperature for 1 to 3 hours. After the incubation, the enzyme reactions were stopped by the addition of EDTA. Then, after the samples were cocrystallized with CHCA (α-cyano-4-hydroxy cinnamic acid) matrices on MALDI target plate, by using the matrix assist laser deionization time-of-flight mass spectrometer (MALDI-TOF MS), samples were measured in reflector negative mode. Deprotonated ions of acetyl CoA (AcCoA) of substrate and malonyl CoA (MalCoA) of the reaction product were detected, then, the conversion rates of acetyl CoA to malonyl CoA was calculated by the intensity of [MalCoA-H]-/(Intensity of [MalCoA-H]-+Intensity of [AcCoA-H]-) using each signal strength. […] In addition, potassium citrate concentrations in assay buffer solution, potassium hydrogen carbonate concentrations in substrate solution and incubation time were adjusted by each lot of enzyme.

As for `CC(=O)N[C@@H](C)/C=C/c1ccc(Oc2ccc(-c3ncc(F)cn3)cc2)nc1` [Compound I-493], under setting [1], the half-inhibitory concentration (IC50) is 150 nM.
For `CC(=O)N[C@@H](C)/C=C/c1ccc(Oc2ccc(Oc3ccccc3)cc2Cl)nc1` [Compound I-462], under setting [1], the IC50 is 19 nM.
With `C[C@@H](/C=C/c1cnc(Oc2ccc(OCC3CC3)cc2Cl)s1)NC(=O)C(F)F` [Compound I-177], the IC50 under setting [2] came out at 18 nM.
On to `CC(=O)N[C@@H](C)/C=C/c1cnn(Cc2cc(F)c(OCC3CC3)c(Cl)c2)c1` [Compound I-265], for which, under setting [3], the IC50 came out at 1100 nM.
In the case of `CC(=O)N[C@@H](C)/C=C/c1ccc(Oc2ccc(-c3ccccn3)cc2Cl)nc1` [Compound I-325], the IC50 under setting [4] turned out to be 120 nM.
On to `CC(=O)N[C@@H](C)/C=C/c1cnc(Oc2ccc(C(C)(C)C(F)(F)F)cc2Cl)cn1` [Compound I-428], for which the IC50 came to 170 nM.
Regarding `C[C@@H](/C=C/c1cnc(Oc2ccc(OCC3CC3)cc2Cl)s1)NC(=O)C1(C(N)=O)CC1` [Compound I-74], under setting [5], the IC50 was determined as 57 nM.
For the molecule `CC(=O)N[C@@H](C)/C=C/c1ccc(Oc2ccc3c(c2)CCO3)nc1` [Compound I-429], the IC50 came out at 50 nM.
For `CC(=O)N[C@@H](C)/C=C/c1ccc(Oc2ccc(-c3cccnc3)cc2Cl)nc1` [Compound I-326], under setting [4], the IC50 was found to be 440 nM.
Consider `CCOc1ccc(Oc2ccc(/C=C/[C@H](C)CC(=O)NC)cn2)c(Cl)c1` [Compound I-410], for which the concentration for half-maximal inhibition (IC50) came out at 150 nM.
With `CC(=O)N[C@@H](C)/C=C/c1ccc(Oc2ccc(Oc3ccc([N+](=O)[O-])cc3)cc2Cl)nc1` [Compound I-451], the IC50 under setting [1] was 25 nM.
The same measure, in the same setting: next, `CCCc1cc(Oc2ccc(/C=C/[C@H](C)NC(C)=O)cn2)ccc1Cl` [Compound I-485]: 130 nM.
As to `CC(=O)NC(C)(C)/C(C)=C/c1ccc(Oc2ccc(OCC3CC3)cc2Cl)nc1` [Compound I-290], the concentration for half-maximal inhibition (IC50) under setting [3] was found to be 600 nM.
In the case of `CCCc1cccc(Oc2ccc(/C=C/[C@H](C)NC(C)=O)cn2)c1Cl` [Compound I-469], under setting [1], the half-maximal inhibitory concentration (IC50) came to 36 nM.
Consider `COc1cc(Cl)cc(Oc2ccc(/C=C/[C@H](C)NC(C)=O)cn2)c1` [Compound I-28], for which the IC50 under setting [5] is 97 nM.
In the case of `CC(=O)N[C@@H](C)/C=C/c1ccc(Oc2ccc(C3=CCCCC3)cc2Cl)nc1` [Compound I-350], under setting [4], the IC50 was 18 nM.
Consider `CC(=O)N[C@@H](C)/C=C/c1ccc(Oc2ccc(C3=CCC4(CC3)CC4)c(Cl)c2)nc1` [Compound I-378], for which, under setting [4], the IC50 is 16 nM.
In the case of `C[C@@H](/C=C/c1cnc(Oc2ccc(OCC3CC3)cc2Cl)s1)NC(=O)CCCn1cncn1` [Compound I-87], the IC50 under setting [5] came to 350 nM.
Same read-out and setting: for `COc1cccc(Oc2ccc(/C=C/[C@H](C)NC(C)=O)cn2)c1Cl` [Compound I-29] the value was 94 nM.
For the molecule `CC(=O)N[C@@H](C)/C=C/c1ccc(Oc2ccc(NC(=O)CC3CC3)cc2Cl)nc1` [Compound I-251], under setting [3], the half-maximal inhibitory concentration (IC50) came out at 96 nM.
Regarding `CC(=O)N[C@@H](C)/C=C/c1cnc(Oc2ccc(OCC3CC3)cc2Cl)c(Cl)c1` [Compound I-335], under setting [4], the IC50 is 15 nM.
On to `CC(=O)N[C@@H](C)/C=C/c1cnn(Cc2ccc(OCC3CC3)cc2Cl)c1` [Compound I-63], for which the IC50 under setting [5] came out at 830 nM.
In the case of `CC(=O)N[C@@H](C)/C=C/c1ccc(Oc2ccc3c(c2Cl)CCN(CC2CC2)C3=O)nc1` [Compound I-511], the IC50 under setting [1] worked out at 88 nM.
Same read-out and setting: next, `CC(=O)N[C@@H](C)/C=C/c1ccc(Oc2ccc3sc(C)nc3c2Cl)nc1` [Compound I-501]: 31 nM.
For `CCOc1cccc(Oc2ccc(/C=C/[C@H](C)NC(C)=O)cn2)c1Cl` [Compound I-48], under setting [5], the IC50 was found to be 37 nM.
Turning to `CC(=O)N[C@@H](C)/C=C/c1ccc(Oc2ccc(C(C)F)cc2Cl)nc1` (stereo partly drawn) [Compound I-332], the 50% inhibitory concentration (IC50) under setting [4] was 92 nM.
With `CC(=O)N[C@@H](C)/C=C/c1cnc(Oc2cc3c(cc2Cl)OC(C)(C)C3)cn1` [Compound I-508], the IC50 under setting [1] came to 230 nM.
As for `C[C@@H](/C=C/c1cnc(Oc2ccc(OCC3CC3)cc2Cl)s1)NC(=O)c1cccc(-c2ncco2)c1` [Compound I-144], the half-maximal inhibitory concentration (IC50) under setting [2] turned out to be 690 nM.
On the same count and under the same terms, for `CCOC(=O)CCNc1cc(C(=O)N[C@@H](C)/C=C/c2cnc(Oc3ccc(OCC4CC4)cc3Cl)s2)ccn1` [Compound I-247] the value was 430 nM; for `C[C@@H](/C=C/c1cnc(Oc2ccc(OCC3CC3)cc2Cl)s1)NC(=O)c1ccnc(OCCN2CCCC2)c1` [Compound I-242], 16 nM.
As for `CCS(=O)(=O)c1ccc(Oc2ccc(/C=C/[C@H](C)NC(C)=O)cn2)c(Cl)c1` [Compound I-362], the IC50 under setting [4] stood at 350 nM.
Turning to `C[C@@H](/C=C/c1cnn(Cc2ccc(OCC3CC3)cc2Cl)c1)NC(=O)c1ccnc(C(=O)NC(C)(C)C)c1` [Compound I-236], the IC50 under setting [2] is 15 nM.
`CC(=O)N[C@@H](C)/C=C/c1cnc(Oc2ccc(OCC3CC3)cc2C#N)s1` [Compound I-6]: the concentration for half-maximal inhibition (IC50) under setting [5] is 78 nM.
Consider `CC(=O)N[C@@H](C)/C=C/c1ccc(Oc2ccc(C3(C)CC3)cc2Cl)nc1` [Compound I-369], for which, under setting [4], the IC50 stood at 24 nM.
Consider `CC(=O)N[C@@H](C)/C=C/c1ccc(Oc2ccc(OCCO)cc2Cl)nc1` [Compound I-304], for which, under setting [3], the IC50 was 1400 nM.
In the case of `COc1cc(Oc2ncc(/C=C/[C@H](C)NC(C)=O)cn2)c(Cl)cc1OCC1CC1` [Compound I-407], the IC50 stood at 2100 nM.
For `CC(=O)N[C@@H](C)/C=C/c1ccc(Oc2ccc3c(C)noc3c2)nc1` [Compound I-456], under setting [1], the 50% inhibitory concentration (IC50) came to 450 nM.
Still for that read-out and setting: for `CC(=O)N[C@@H](C)/C=C/c1ccc(Oc2ccc(Oc3ccc(C#N)cc3)cc2Cl)nc1` [Compound I-452] the value was 42 nM.
As to `CCCc1cc(F)c(Oc2ccc(/C=C/[C@H](C)NC(C)=O)cn2)c(Cl)c1` [Compound I-372], the IC50 under setting [4] stood at 33 nM.
For the molecule `CC(=O)N[C@@H](C)/C=C/c1ccc(Oc2ccc3c(c2)CCCO3)nc1` [Compound I-444], the IC50 under setting [1] was found to be 42 nM.
In the case of `CC(C)COCC(=O)N[C@@H](C)/C=C/c1cnc(Oc2ccc(OCC3CC3)cc2Cl)s1` [Compound I-103], under setting [5], the IC50 was determined as 970 nM.
On to `CCN(CC)c1ccc(Oc2ccc(/C=C/[C@H](C)NC(C)=O)cn2)c(Cl)c1` [Compound I-288], for which the IC50 under setting [3] is 36 nM.
Consider `CC(=O)N[C@@H](C)/C=C/c1ccc(Oc2ccc(C3=CCCC3)cc2Cl)nc1` [Compound I-351], for which the IC50 under setting [4] turned out to be 42 nM.
For the molecule `CC(=O)N[C@@H](C)/C=C/c1cnc(Oc2ccc(NC3CCCC3)c(Cl)c2)nc1` [Compound I-285], the IC50 under setting [3] was found to be 96 nM.
As to `CCOCn1ccnc1-c1cc(C(=O)N[C@@H](C)/C=C/c2cnc(Oc3ccc(OCC4CC4)cc3Cl)s2)ccn1` [Compound I-158], the IC50 under setting [2] came out at 1400 nM.
With `CCCc1ccc(Oc2ccc(/C=C/[C@H](C)NC(=O)CNC(C)=O)cn2)c(Cl)c1` [Compound I-392], the IC50 is 970 nM.
Same read-out and setting: for `CC(=O)N[C@@H](C)/C=C/c1ccc(Oc2ccc(-c3ncc(C(F)(F)F)cn3)cc2Cl)nc1` [Compound I-419] the value was 48 nM.
For the molecule `CC(=O)N[C@@H](C)/C=C/c1ccc(Oc2ccc(Cl)c(Cl)c2)nc1` [Compound I-338], the IC50 under setting [4] worked out at 33 nM.
For the molecule `CCOc1ccc(OCc2cccc(/C=C/[C@H](C)NC(C)=O)n2)c(Cl)c1` [Compound I-505], the concentration for half-maximal inhibition (IC50) under setting [1] is 45 nM.
Take `C[C@@H](/C=C/c1cnc(Oc2ccc(OCC3CC3)cc2Cl)s1)NC(=O)CN1C(=O)CCC1=O` [Compound I-105]: the IC50 under setting [5] stood at 200 nM.
As to `CC(=O)N[C@@H](C)/C=C/c1ccc(Oc2cccc(OC(C)C)c2)nc1` [Compound I-49], the IC50 under setting [5] came out at 72 nM.
